In general, IC50 refers to the concentration that gives 50% inhibition.

Sequence of BTK (Q06187 whole entry): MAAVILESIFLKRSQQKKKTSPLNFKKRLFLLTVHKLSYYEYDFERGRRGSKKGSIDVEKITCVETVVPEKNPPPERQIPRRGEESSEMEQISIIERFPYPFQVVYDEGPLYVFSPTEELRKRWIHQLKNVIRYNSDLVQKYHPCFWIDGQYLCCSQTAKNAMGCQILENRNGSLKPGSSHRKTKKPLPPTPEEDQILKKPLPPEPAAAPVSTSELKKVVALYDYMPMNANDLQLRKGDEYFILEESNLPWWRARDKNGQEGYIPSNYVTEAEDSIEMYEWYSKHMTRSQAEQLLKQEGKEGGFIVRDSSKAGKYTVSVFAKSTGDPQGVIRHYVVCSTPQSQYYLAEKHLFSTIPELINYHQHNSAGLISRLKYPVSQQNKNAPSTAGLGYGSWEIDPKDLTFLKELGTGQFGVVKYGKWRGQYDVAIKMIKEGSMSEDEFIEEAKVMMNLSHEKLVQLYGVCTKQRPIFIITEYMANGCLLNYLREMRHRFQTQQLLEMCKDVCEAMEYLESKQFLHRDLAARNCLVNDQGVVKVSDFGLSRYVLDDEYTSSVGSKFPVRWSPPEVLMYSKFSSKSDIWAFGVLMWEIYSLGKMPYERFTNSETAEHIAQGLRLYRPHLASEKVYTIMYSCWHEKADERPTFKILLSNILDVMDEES

The first test addresses BTK (Homo sapiens (Human), UniProt Q06187). The test can be described thus: In vitro BTK kinase assay: BTK-POLYGAT-LS ASSAY.
Conditions: not given
In turn, `CC(C)(O)c1ccccc1NC(=O)Nc1cccc(C2CCCN(c3ncnc4[nH]ccc34)C2)c1` (stereo not shown) [compound 195] returned an IC50 of 1000 to 10000 nM.

For `O=C(Nc1cccc(C2CCCN(c3ncnc4[nH]ccc34)C2)c1)Nc1ccccc1N1CCC(F)(F)C1` (stereo not shown) [compound 168], the IC50 fell in the range of 100 to 999 nM.

In the case of `O=C(NCC1CCCC1)Nc1cccc(C2CCCN(c3ncnc4[nH]ccc34)C2)c1` (stereo not shown) [compound 166], the IC50 was in the range of 100 to 999 nM.

The molecule `O=C(NCc1cccc(C2CCCN(c3ncnc4[nH]ccc34)C2)c1)Nc1ccccc1` (stereo not shown) [compound 216] had an IC50 of 1000 to 10000 nM.

In the case of `Cc1cc(NC(=O)Nc2cccc(C3CCCN(c4ncnc5[nH]ccc45)C3)c2)on1` (stereo not shown) [Cmpd 66, 1-(3-(1-(7H-pyrrolo[2,3-d]pyrimidin-4-yl)piperidin-3-yl)phenyl)-3-(3-methylisoxazol-5-yl)urea], the IC50 lay in the range of 1000 to 10000 nM.

For `O=C(Nc1cc(C2CCCN(c3ncnc4[nH]ccc34)C2)ccc1OC(F)(F)F)C1CCCCC1` (stereo not shown) [Cmpd 87, N-(5-(1-(7H-pyrrolo[2,3-d]pyrimidin-4-yl)piperidin-3-yl)-2-(trifluoromethoxy)phenyl)cyclohexanecarboxamide], the IC50 lay in the range of 100 to 999 nM.

The molecule `CN(C)Cc1ccccc1NC(=O)Nc1cccc(C2CCCN(c3ncnc4[nH]ccc34)C2)c1` (stereo not shown) [Cmpd 63, 1-(3-(1-(7H-pyrrolo[2,3-d]pyrimidin-4-yl)piperidin-3-yl)phenyl)-3-(2-((dimethylamino)methyl)phenyl)urea] yielded an IC50 of 1000 to 10000 nM.

As to `O=C(Nc1cccc(Cl)c1)Nc1cccc(C2CCCN(c3ncnc4[nH]ccc34)C2)c1` (stereo not shown) [Cmpd 26, 1-(3-(1-(7H-pyrrolo[2,3-d]pyrimidin-4-yl)piperidin-3-yl)phenyl)-3-(3-chlorophenyl)urea], the IC50 fell in the range of 1000 to 10000 nM.

In turn, `O=C(Nc1cccc(C2CCCN(c3ncnc4[nH]ccc34)C2)c1)Nc1cccnc1O` (stereo not shown) [compound 198] came in with an IC50 of 1000 to 10000 nM.

`CN(C)[C@H]1CCN(c2ccccc2NC(=O)Nc2cccc(C3CCCN(c4ncnc5[nH]ccc45)C3)c2)C1` (stereo partly shown) [compound 192]: the half-maximal inhibitory concentration (IC50) was 1000 to 10000 nM.

With `Nc1ncnc(N2CCC(F)C(N3CCCC(Nc4cc(F)cc(Cl)c4)C3=O)C2)c1F` (stereo not shown) [compound 340, 1′-(6-Amino-5-fluoropyrimidin-4-yl)-3-(3-chloro-5-fluorophenylamino)-4′-fluoro-1,3′-bipiperidin-2-one], the IC50 was in the range of 100 to 999 nM.

In the case of `O=C(Nc1ccccc1)N[C@@H]1CCN(C2CCCN(c3ncnc4[nH]ccc34)C2)C1` (stereo partly shown) [compound 220], the IC50 is 1000 to 10000 nM.

With `Nc1ncnc(N2C[C@@H](O)C[C@@H](N3CCCC(Nc4cc(F)cc(Cl)c4)C3=O)C2)c1F` (stereo partly drawn) [compound 284, (3′R, 5′S)-1′-(6-Amino-5-fluoropyrimidin-4-yl)-3-(3-chloro-5-fluorophenylamino)-5′-hydroxy-1,3′-bipiperidin-2-one], the IC50 fell in the range of 100 to 999 nM.

Consider `N#Cc1c(N)ncnc1N1CCCC(c2cccc(NC(=O)Nc3ccccc3)c2)C1` (stereo not shown) [Cmpd 102, 1-(3-(1-(6-Amino-5-cyanopyrimidin-4-yl)piperidin-3-yl)phenyl)-3-phenylurea], for which the IC50 was 100 to 999 nM.

Molecule `N#Cc1c(N)ncnc1N1CCCC(c2ccc(OC(F)(F)F)c(NC(=O)C3CCCCC3)c2)C1` (stereo not shown) [compound 144, N-(5-(1-(6-amino-5-cyanopyrimidin-4-yl)piperidin-3-yl)-2-(trifluoromethoxy)phenyl)cyclohexanecarboxamide] had an IC50 of 1000 to 10000 nM.

Molecule `O=C(Nc1ccsc1)Nc1cccc(C2CCCN(c3ncnc4[nH]ccc34)C2)c1` (stereo not shown) [Cmpd 32, 1-(3-(1-(7H-pyrrolo[2,3-d]pyrimidin-4-yl)piperidin-3-yl)phenyl)-3-(thiophen-3-yl)urea] gave an IC50 of 1000 to 10000 nM.

Take `O=C(Nc1cccc(C2CCN(c3ncnc4[nH]ccc34)C2)c1)Nc1ccccc1N1CCCC1` (stereo not shown) [compound 171]: the IC50 is 100 to 999 nM.

Take `O=C(Nc1cccc(C2CCCN(c3ncnc4[nH]ccc34)C2)c1)NC1CCC1` (stereo not shown) [compound 204]: the IC50 was in the range of 1000 to 10000 nM.

Regarding `CC(=O)NCc1ccccc1NC(=O)Nc1cccc(C2CCCN(c3ncnc4[nH]ccc34)C2)c1` (stereo not shown) [Cmpd 62, N-(2-(3-(3-(1-(7H-pyrrolo[2,3-d]pyrimidin-4-yl)piperidin-3-yl)phenyl)ureido)benzyl)acetamide], the half-inhibitory concentration (IC50) was 1000 to 10000 nM.

Regarding `O=C(Nc1cccnc1)Nc1cccc(C2CCCN(c3ncnc4[nH]ccc34)C2)c1` (stereo not shown) [Cmpd 30, 1-(3-(1-(7H-pyrrolo[2,3-d]pyrimidin-4-yl)piperidin-3-yl)phenyl)-3-(pyridin-3-yl)urea], the IC50 fell in the range of 1000 to 10000 nM.

The same test, now with this note: read-out: IC50 (10 uM ATP); 10 uM ATP; in vitro Btk kinase assay, Example 41.
On to `O=C(Nc1cccc(C2CCCN(c3ncnc4[nH]ccc34)C2)c1)Nc1ccccc1N1CC[C@H](O)C1` (stereo partly shown) [compound 155], for which the IC50 was less than 100 nM.

For the molecule `Nc1ncnc(N2CC(N3CCCC(Nc4cc(F)cc(Cl)c4)C3=O)CC(F)(F)C2)c1F` (stereo not shown) [compound 359], the IC50 is less than 100 nM.

With `O=C(Nc1ccccc1)NC1CN(C2CCCN(c3ncnc4[nH]ccc34)C2)C1` (stereo not shown) [compound 234], the IC50 is greater than 10000 nM.

As for `Nc1ncnc(N2CCC(C(F)(F)F)C(N3CC=CC[C@@H](Nc4cc(F)cc(Cl)c4)C3=O)C2)c1F` (stereo partly drawn) [compound 349, trans (R,Z)-1-(-1-(6-amino-5-fluoropyrimidin-4-yl)-4-(trifluoromethyl)piperidin-3-yl)-3-(3-chloro-5-fluorophenylamino)-3,4-dihydro-1H-azepin-2(7H)-one], the IC50 is less than 100 nM.

With `Nc1ncnc(N2CCC[C@@H](N3CCCC(NCC4CCCCC4)C3=O)C2)c1F` (stereo partly drawn) [compound 293, (3′R)-1′-(6-Amino-5-fluoropyrimidin-4-yl)-3-(cyclohexylmethylamino)-1,3′-bipiperidin-2-one], the IC50 is greater than 10000 nM.

Turning to `Nc1ncnc(N2CCC[C@@H](N3CC=CC[C@@H](Nc4cc(F)cc(Cl)c4)C3=O)C2)c1F` [compound 347, (R,Z)-1-((R)-1-(6-amino-5-fluoropyrimidin-4-yl)piperidin-3-yl)-3-(3-chloro-5-fluorophenylamino)-3,4-dihydro-1H-azepin-2(7H)-one], the IC50 is less than 100 nM.

For `Nc1ncnc(N2CC[C@@H](F)[C@H](N3CCC[C@@H](Nc4cc(F)cc(Cl)c4)C3=O)C2)c1F` [compound 342, (3R,3′R,4′R)-1′-(6-amino-5-fluoropyrimidin-4-yl)-3-(3-chloro-5-fluorophenylamino)-4′-fluoro-1,3′-bipiperidin-2-one], the IC50 was greater than 10000 nM.

Regarding `O=C(Cc1ccccc1)Nc1cccc(C2CCCN(c3ncnc4[nH]ccc34)C2)c1` (stereo not shown) [Cmpd 9, N-(3-(1-(7H-pyrrolo[2,3-d]pyrimidin-4-yl)piperidin-3-yl)phenyl)-2-phenylacetamide], the IC50 is greater than 10000 nM.

For `CC(C)(C)c1ccccc1NC(=O)Nc1cccc([C@H]2CCCN(c3ncnc4[nH]ccc34)C2)c1` [compound 156], the IC50 was less than 100 nM.

On to `Nc1ncnc(N2CC[C@H](C(F)(F)F)[C@@H](N3CCC[C@@H](Nc4cc(Cl)cc(Cl)c4)C3=O)C2)c1F` [compound 337, trans (3R)-1′-(6-Amino-5-fluoropyrimidin-4-yl)-3-(3,5-dichlorophenylamino)-4′-(trifluoromethyl)-1,3′-bipiperidin-2-one], for which the IC50 was less than 100 nM.

On to `O=S(=O)(Nc1cccc(C2CCCN(c3ncnc4[nH]ccc34)C2)c1)c1ccccc1` (stereo not shown) [Cmpd 68, N-(3-(1-(7H-pyrrolo[2,3-d]pyrimidin-4-yl)piperidin-3-yl)phenyl)benzenesulfonamide], for which the IC50 is greater than 10000 nM.

As to `CC(C)(C)c1ccc(NC(=O)Nc2cccc(C3CCCN(c4ncnc5[nH]ccc45)C3)c2)cc1` (stereo not shown) [compound 263], the concentration for half-maximal inhibition (IC50) is greater than 10000 nM.

As to `Cc1cc(=O)nc(Nc2cccc(C3CCCN(c4ncnc5[nH]ccc45)C3)c2)[nH]1` (stereo not shown) [compound 122, 2-(3-(1-(7H-pyrrolo[2,3-d]pyrimidin-4-yl)piperidin-3-yl)phenylamino)-6-methylpyrimidin-4(1H)-one], the IC50 is greater than 10000 nM.

With `Nc1ncnc(N2CCC[C@@H](N3CCCC(Nc4cccc(C(=O)O)c4)C3=O)C2)c1F` (stereo partly drawn) [compound 299, 3-((3′R)-1′-(6-Amino-5-fluoropyrimidin-4-yl)-2-oxo-1,3′-bipiperidin-3-ylamino)benzoic acid], the IC50 is greater than 10000 nM.

In the case of `O=C(NCC1CCNC1)Nc1cccc(C2CCCN(c3ncnc4[nH]ccc34)C2)c1` (stereo not shown) [compound 233], the IC50 was greater than 10000 nM.

With `CNC(=O)Nc1cccc(C2CCCN(c3ncnc4[nH]ccc34)C2)c1` (stereo not shown) [compound 262], the IC50 is greater than 10000 nM.

Turning to `CN1CCC(CNC(=O)Nc2cccc(C3CCCN(c4ncnc5[nH]ccc45)C3)c2)CC1` (stereo not shown) [compound 245], the IC50 is greater than 10000 nM.

With `CC(C)c1ccccc1NC(=O)Nc1cccc(C2CCCN(c3ncnc4[nH]ccc34)C2)c1` (stereo not shown) [compound 151], the IC50 was less than 100 nM.

For `COc1ccc(C2CCCN(c3ncnc4[nH]ccc34)C2)cc1NC(=O)Nc1ccccc1` (stereo not shown) [compound 266], the IC50 is greater than 10000 nM.

On to `O=c1c(Nc2ccccc2)c(Nc2cccc(C3CCCN(c4ncnc5[nH]ccc45)C3)c2)c1=O` (stereo not shown) [Cmpd 69, 3-(3-(1-(7H-pyrrolo[2,3-d]pyrimidin-4-yl)piperidin-3-yl)phenylamino)-4-(phenylamino)cyclobut-3-ene-1,2-dione], for which the IC50 is greater than 10000 nM.

As to `CC(C)(C)c1cccc(NC(=O)Nc2cccc(C3CCCN(c4ncnc5[nH]ccc45)C3)c2)c1` (stereo not shown) [compound 264], the IC50 was greater than 10000 nM.

Take `O=C(NCC1CCCCN1)Nc1cccc(C2CCCN(c3ncnc4[nH]ccc34)C2)c1` (stereo not shown) [compound 252]: the half-maximal inhibitory concentration (IC50) is greater than 10000 nM.

For the molecule `O=C1C(Nc2cc(Cl)cc(C(F)(F)F)c2)CCCN1[C@@H]1CCCN(c2ncnc3[nH]ccc23)C1` (stereo partly drawn) [compound 300, (3′R)-3-(3-Chloro-5-(trifluoromethyl)phenylamino)-1′-(7H-pyrrolo[2,3-d]pyrimidin-4-yl)-1,3′-bipiperidin-2-one], the IC50 is less than 100 nM.

In the case of `Nc1ncnc(N2CCC[C@@H](N3CCCC(Nc4cc(Cl)c(F)c(Cl)c4)C3=O)C2)c1F` (stereo partly drawn) [compound 309, (3′R)-1′-(6-Amino-5-fluoropyrimidin-4-yl)-3-(3,5-dichloro-4-fluorophenylamino)-1,3′-bipiperidin-2-one], the IC50 is less than 100 nM.

Turning to `NC(=O)Cc1ccccc1NC(=O)Nc1cccc(C2CCCN(c3ncnc4[nH]ccc34)C2)c1` (stereo not shown) [compound 261], the IC50 is greater than 10000 nM.

As for `CC(C)(C)NC(=O)Nc1cccc(C2CCCN(c3ncnc4[nH]ccc34)C2)c1` (stereo not shown) [compound 250], the IC50 is greater than 10000 nM.
